Test results: PubChem BioAssay (NCI)
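Five concentrations, 48 hours, 96-well plates. TGI denotes the concentration required for complete inhibition of growth.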

Assays:
Experiment in all cases: NCI-60 cell line screen, 48 h
BT-549 breast = system: BT-549 breast
HCT-15 colon = system: HCT-15 colon
HOP-62 NSCLC = system: HOP-62 NSCLC
K-562 leukemia = system: K-562 leukemia
LOX IMVI melanoma = system: LOX IMVI melanoma
MALME-3M melanoma = system: MALME-3M melanoma
NCI-H226 lung = system: NCI-H226 lung
NCI-H460 lung = system: NCI-H460 lung
NCI-H522 lung = system: NCI-H522 lung
OVCAR-3 ovarian = system: OVCAR-3 ovarian
OVCAR-4 ovarian = system: OVCAR-4 ovarian
OVCAR-8 ovarian = system: OVCAR-8 ovarian
SK-MEL-2 melanoma = system: SK-MEL-2 melanoma
SK-MEL-5 melanoma = system: SK-MEL-5 melanoma
SW-620 colon = system: SW-620 colon
U251 CNS = system: U251 CNS
UO-31 renal = system: UO-31 renal
HOP-92 NSCLC = system: HOP-92 NSCLC
M14 melanoma = system: M14 melanoma
SK-OV-3 ovarian = system: SK-OV-3 ovarian

Row | SMILES | TGI (BT-549 breast) [µM] | TGI (HCT-15 colon) [µM] | TGI (HOP-62 NSCLC) [µM] | TGI (K-562 leukemia) [µM] | TGI (LOX IMVI melanoma) [µM] | TGI (MALME-3M melanoma) [µM] | TGI (NCI-H226 lung) [µM] | TGI (NCI-H460 lung) [µM] | TGI (NCI-H522 lung) [µM] | TGI (OVCAR-3 ovarian) [µM] | TGI (OVCAR-4 ovarian) [µM] | TGI (OVCAR-8 ovarian) [µM] | TGI (SK-MEL-2 melanoma) [µM] | TGI (SK-MEL-5 melanoma) [µM] | TGI (SW-620 colon) [µM] | TGI (U251 CNS) [µM] | TGI (UO-31 renal) [µM] | TGI (HOP-92 NSCLC) [µM] | TGI (M14 melanoma) [µM] | TGI (SK-OV-3 ovarian) [µM]
1 | CCC(C)[C@H]1C(=O)N=C(N)N1C(=O)OCc1ccccc1 (stereo partly drawn) | > 100 | > 100 | > 100 | > 100 | > 100 | > 100 | > 100 | > 100 | > 100 | > 100 | > 100 | > 100 | > 100 | > 100 | > 100 | > 100 | > 100 | – | – | –
2 | O=c1oc2ccccc2c(-c2ccc(O)cc2)c1Oc1ccc(Cl)cc1 | 84.3 | > 100 | – | 72.1 | 62 | 55 | 86.3 | 54.4 | 43.7 | 39.7 | > 100 | 69.7 | 54.2 | 45.3 | > 100 | 61.4 | 51.9 | 52.9 | 39 | –
3 | CCOC(=O)CCC(NC(=O)N1CCN(c2c(C)nc(C)[nH]c2=O)CC1)C(=O)OCC (stereo not drawn) | > 100 | > 100 | > 100 | > 100 | > 100 | > 100 | > 100 | > 100 | > 100 | > 100 | > 100 | > 100 | – | – | > 100 | > 100 | > 100 | > 100 | > 100 | > 100
4 | Nc1ccc(-c2nc3cc(F)ccc3s2)cc1Br | > 74.1 | > 65.1 | > 100 | > 100 | > 100 | > 100 | – | > 46 | > 100 | > 100 | > 100 | > 100 | > 100 | > 100 | > 100 | 57.8 | > 100 | > 100 | > 100 | > 100
5 | COc1cccc2c3cccc(OC)c3c3[nH]cnc3c12 | 31.6 | 3.42 | 35.2 | 7.16 | 3.52 | 7.81 | 32.7 | 3.26 | 2.88 | 31.7 | 12 | – | 34.3 | – | 3.19 | 3.03 | 3.02 | 24 | 3.08 | 34.1
6 | Nc1sccc1S(=O)(=O)c1ccsc1N | > 100 | > 100 | > 100 | – | > 100 | > 100 | > 100 | > 100 | > 100 | > 100 | > 100 | > 100 | > 100 | > 100 | > 100 | > 100 | > 100 | > 100 | > 100 | > 100
7 | CCC(C#N)N(Cc1ccc(CN(C(=O)c2ccccc2)C(C#N)CC)cc1)C(=O)c1ccccc1 (stereo not drawn) | 72.7 | > 100 | 90.4 | > 100 | 31.4 | 88.5 | 78.1 | – | > 100 | 48.2 | 80.9 | > 100 | 56.8 | 25.8 | 93 | 56.1 | 93.4 | 35.3 | > 100 | > 100
8 | Nn1c(-c2ccccc2Nc2ccccc2-c2n[nH]c(=S)n2N)n[nH]c1=S | > 50 | > 50 | > 50 | > 50 | > 50 | > 50 | > 50 | > 50 | > 50 | > 50 | > 50 | > 50 | > 50 | > 50 | > 50 | > 50 | > 50 | > 50 | > 50 | –
9 | NNC(=O)CC(=O)Nc1ccc(C(=O)O)cc1 | > 100 | > 100 | > 100 | > 100 | > 100 | > 100 | > 100 | > 100 | > 100 | > 100 | > 100 | > 100 | > 100 | > 100 | > 100 | > 100 | > 100 | > 100 | – | > 100
10 | Cc1cc2c(cc1Cl)SC(NN(C)C)=NS2(=O)=O | > 10 | > 10 | > 10 | > 10 | > 10 | > 10 | > 10 | > 10 | > 10 | > 10 | > 10 | > 10 | > 10 | > 10 | > 10 | > 10 | – | – | > 10 | > 10
11 | CCN(CC)CCC(=O)c1ccc(Oc2ccc(C)cc2)cc1 | 32.7 | 33.8 | 39.3 | > 100 | 31 | 33.7 | 86.8 | – | – | 32.4 | 55.3 | 39.4 | > 100 | – | 33.8 | 30.7 | – | 39.3 | 31.9 | 88.7
12 | CN(C)c1ccc(/C=C2\C[C@H]3[C@@H]4CCC5=CC(=O)CC[C@]5(C)[C@H]4CC[C@]3(C)C2=O)cc1 | > 100 | > 100 | > 100 | > 100 | 41.7 | 72.9 | > 100 | 51.1 | – | > 100 | > 100 | > 100 | > 100 | 32.3 | > 100 | 85.6 | > 100 | 66.1 | > 100 | > 100
13 | C#CCn1c(=O)c(C)cn(/C(=C/C(=O)OCC)C(=O)OCC)c1=O | 20.4 | 4.07 | 30.5 | > 69.4 | 29.8 | 4.07 | 4.9 | 7.83 | – | 19.6 | 19.3 | 5.56 | 27.2 | 32.9 | 4.16 | 25.2 | 23.4 | 8.5 | 14 | > 63.1
